ChEMBL document CHEMBL1138794, “Influence of the linker in bispyridium compounds on the inhibition of human choline kinase” (J Med Chem, 2004)

What was measured:
Choline kinase alpha = Choline kinase alpha (Homo sapiens, UniProt P35790); experiment: Inhibitory activity against human choline kinase enzyme
HT-29 = experiment: Antiproliferative activity was determined using HT-29 human colon cancer cell line; assay type: functional, cell-based

Sequence of Choline kinase alpha (P35790 whole entry): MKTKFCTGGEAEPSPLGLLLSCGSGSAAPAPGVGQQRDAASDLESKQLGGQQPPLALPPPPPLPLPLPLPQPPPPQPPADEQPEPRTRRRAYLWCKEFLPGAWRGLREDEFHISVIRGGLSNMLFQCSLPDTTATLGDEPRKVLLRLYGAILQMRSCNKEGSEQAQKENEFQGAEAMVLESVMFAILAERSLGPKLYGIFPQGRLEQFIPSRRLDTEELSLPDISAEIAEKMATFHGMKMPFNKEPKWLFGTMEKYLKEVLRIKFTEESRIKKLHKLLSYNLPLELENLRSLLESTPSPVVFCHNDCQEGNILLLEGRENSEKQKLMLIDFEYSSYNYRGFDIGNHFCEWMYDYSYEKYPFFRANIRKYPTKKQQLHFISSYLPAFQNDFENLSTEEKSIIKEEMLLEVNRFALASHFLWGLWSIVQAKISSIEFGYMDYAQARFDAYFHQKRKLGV

SMILES	IC50 (Choline kinase alpha)	IC50 (HT-29)
c1c[n+](C[C@H]2C[C@@H]2C[n+]2ccc(N3CCCC3)cc2)ccc1N1CCCC1	> 100 µM	> 100 µM
CN(c1ccc(Cl)cc1)c1cc[n+](C[C@H]2C[C@@H]2C[n+]2ccc(N(C)c3ccc(Cl)cc3)cc2)cc1	48.2 µM	24.3 µM
CN(c1ccc(Cl)cc1)c1cc[n+](Cc2ccc(-c3ccc(C[n+]4ccc(N(C)c5ccc(Cl)cc5)cc4)cc3)cc2)cc1	1.8 µM	0.49 µM
c1cc(-c2ccc(C[n+]3ccc(N4CCCCC4)cc3)cc2)ccc1C[n+]1ccc(N2CCCCC2)cc1	8.8 µM	4.2 µM
CN(c1ccccc1)c1cc[n+](Cc2cccc(C[n+]3ccc(N(C)c4ccccc4)cc3)c2)cc1	37.5 µM	5.1 µM
c1cc(C[n+]2ccc(N3CCCCC3)cc2)cc(C[n+]2ccc(N3CCCCC3)cc2)c1	52.8 µM	43 µM
c1cc(C[n+]2ccc(N3CCCCC3)cc2)cc(-c2cccc(C[n+]3ccc(N4CCCCC4)cc3)c2)c1	–	1.6 µM
CN(c1cc[n+](Cc2ccc(C[n+]3ccc(N(C)c4cc(Cl)cc(Cl)c4)cc3)cc2)cc1)c1cc(Cl)cc(Cl)c1	9.7 µM	2.9 µM
CN(c1cc[n+](Cc2cccc(C[n+]3ccc(N(C)c4cc(Cl)cc(Cl)c4)cc3)c2)cc1)c1cc(Cl)cc(Cl)c1	8.4 µM	4 µM
c1cc(C[n+]2ccc(N3CCCCC3)cc2)ccc1C[n+]1ccc(N2CCCCC2)cc1	37.7 µM	> 100 µM
c1cc(C[n+]2ccc(N3CCCC3)cc2)cc(C[n+]2ccc(N3CCCC3)cc2)c1	84.2 µM	50 µM
CN(c1ccc(Cl)cc1)c1cc[n+](Cc2cccc(C[n+]3ccc(N(C)c4ccc(Cl)cc4)cc3)c2)cc1	7.2 µM	3.3 µM
CN(c1cc[n+](C[C@H]2C[C@@H]2C[n+]2ccc(N(C)c3cc(Cl)cc(Cl)c3)cc2)cc1)c1cc(Cl)cc(Cl)c1	> 100 µM	7.5 µM
CN(c1ccccc1)c1cc[n+](Cc2ccc(C[n+]3ccc(N(C)c4ccccc4)cc3)cc2)cc1	15 µM	6.81 µM
CN(c1ccc(Cl)cc1)c1cc[n+](Cc2ccc(C[n+]3ccc(N(C)c4ccc(Cl)cc4)cc3)cc2)cc1	2.9 µM	3.5 µM
CN(c1ccccc1)c1cc[n+](Cc2ccc(-c3ccc(C[n+]4ccc(N(C)c5ccccc5)cc4)cc3)cc2)cc1	4.3 µM	2 µM
CN(c1cc[n+](Cc2cccc(-c3cccc(C[n+]4ccc(N(C)c5cc(Cl)cc(Cl)c5)cc4)c3)c2)cc1)c1cc(Cl)cc(Cl)c1	2.6 µM	1.8 µM
CN(c1ccccc1)c1cc[n+](Cc2cccc(-c3cccc(C[n+]4ccc(N(C)c5ccccc5)cc4)c3)c2)cc1	0.4 µM	2.2 µM
CN(c1ccccc1)c1cc[n+](C[C@H]2C[C@@H]2C[n+]2ccc(N(C)c3ccccc3)cc2)cc1	> 100 µM	> 100 µM
c1cc(-c2ccc(C[n+]3ccc(N4CCCC4)cc3)cc2)ccc1C[n+]1ccc(N2CCCC2)cc1	11.1 µM	6.1 µM
c1c[n+](C[C@H]2C[C@@H]2C[n+]2ccc(N3CCCCC3)cc2)ccc1N1CCCCC1	98 µM	99 µM
c1cc(C[n+]2ccc(N3CCCC3)cc2)ccc1C[n+]1ccc(N2CCCC2)cc1	24 µM	> 100 µM
